Test results from US8420654B2 (Eli Lilly and Company, priority 2008, dated 2013).

Experiments:
CYP2D6 = target: T1, CYP2D6 (Homo sapiens, UniProt P10635); test: Human CYP fingerprinting, quinidine inhibitor; format: in vitro ADME; conditions: 4 μM, human liver microsomes, 30 min, quinidine 10 μM
T1 construct: pooled, mixed gender, human liver microsomes; from tissue; host or cells: pooled, mixed gender human liver microsomes
Procedure: (§1) CYP fingerprinting is well established technique and is used as an indication of potential risk of drug-drug interactions in the pharmaceutical sciences. Compounds of the present invention may be assayed by well known methods, essentially as follows: Compounds are incubated at 37° C. at a final concentration of 4 μM with pooled, mixed gender, human liver microsomes and 1 mM NADPH ([…]) (final conc.) for 0 and 30 min. without any CYP inhibitor and with each CYP inhibitor in separate incubations for 30 min. Each inhibitor is specific for an individual cytochrome P450. The specific inhibitors used for CYPs 2C9, 2D6 and 3A were sulfaphenazole, quinidine and ketoconazole, respectively. Ketoconazole (CYP3A) is made up at 25 mM in DMSO and then diluted in buffer to a final concetration of 10 μM. Quinidine (CYP2D6) is made up at 5 mM in 50/50 acetonitrile/water and then diluted in buffer to a final concetration of 10 μM. Sulfaphenazole (CYP2C9) is made up at 100 mM in DMSO and then diluted in buffer to a final concetration of 5 μM. Samples are analyzed by LC-MS in positive or negative electrospray mode using a Waters Acquity Ultra Performance LC coupled to a MicroMass Q-T of-2 mass spectrometer.
(§2) Data are analyzed using MetaboLynx™ version 4.1. With inhibitor present, a reduction in metabolite peak area of less than 30% (relative to the uninhibited control incubation) receives a designation of low risk of Drug Drug Interaction (DDI), a reduction in peak area between 30% and 70% receives a moderate risk of DDI and a reduction of more than 70% receives a high risk of DDI.

hCB-2 [1] = target: T2, hCB-2 (Homo sapiens, UniProt P34972); test: hCB2-Sf9 agonist mode SPA GTP-γ-35S binding assay; format: biochemical; conditions: human CB-2 Sf9 membranes, read-out: hCB-2 SPA GTPγS Sf9 Membrane Agonist Relative EC50
T2 construct: purchased Perkin Elmer, Boston, Mass; host or cells: Sf9 insect cells (membranes)
Procedure: (§3) Compounds of the present invention may be tested for functional activity at the CB-1 and CB-2 receptors in both agonist and antagonist modes using SPA (Scintillation Proximity Assay) based GTP-γ-^35S binding assays. All assay components are prepared in assay buffer (20 mM HEPES, 100 mM NaCl, 5 mM MgCl2, pH 7.4) at room temperature. Semi-log dilutions of test compound are prepared in assay buffer containing BSA (0.125% final conc.) for the agonist mode assays. For the antagonist mode assays, test compounds are prepared in the same manner but also include an 80% efficacious dose of a full agonist (methanandamide). GTP-γ^35S binding for the antagonist assay may be measured in a 96 well format using a modification of an antibody capture technique previously described. (DeLapp, N W, et al. (1999) J Pharmacol Exp Ther 289:946-955.) The CB-2 receptor agonist activity may be measured using a similar method using hCB2-Sf9 membranes. The CB-1 receptor agonist activity may be measured using a whole membrane capture technique using hCB1-CHO membranes. All incubations are done at room temperature.
The hCB2-5f9 assay is run essentially as for the hCB1-sf9 and hCB2-sf9 antagonist assays above, with no challenging agonist added. 1 μM (final conc.) GDP is added to the membrane solution and nonidet P40, anti-Gi-antibody, and SPA bead are added together in a cocktail.
(§4) Data are analyzed as follows: Background is subtracted from all wells. Percent agonist efficacy is determine by normalizing agonist/inverse agonist dose response data to the response obtained for a full agonist (methanandamide). Percent antagonist inhibition is calculated by first normalizing the data to the signal generated by a saturating concentration of the full agonist (methanandamide). Then the data are analyzed using a 4-parameter logistic reduced fit (Activity Base™ and XLFit3™ from IDBS, Emeryville, Calif.). Kb values are determined using a modification of the Cheng-Prusoff relationship: Kb=IC50/(1+[agonist]/EC50), where “IC50” is determined from a four parameter fit of displacement curves, “[agonist]” is the agonist challenge concentration (nM), and “EC50” is determined from a four parameter fit of a full agonist concentration response curve (Cheng and Prusoff 1973). Mean Kb values are calculated as a mean of at least three independent determinations±standard error of the mean (SEM). (Cheng Y C and Prusoff W H. (1973), Biochem Pharmacol 22:3099-3108.) Exemplified compounds are found to be potent CB-1 inverse agonists (Kb≦10 nM, typically <2 nM) and to be selective over the CB-2 receptor (Kb CB-2/Kb CB-1>500, typically >1000).

CYP2C9 = target: T3, CYP2C9 (Homo sapiens, UniProt P11712); test: Human CYP fingerprinting, sulfaphenazole inhibitor; format: in vitro ADME; conditions: 4 μM, human liver microsomes, 30 min, sulfaphenazole 5 μM
T3 construct: pooled, mixed gender, human liver microsomes; from tissue; host or cells: pooled, mixed gender human liver microsomes
Procedure: as §1, §2

hCB-2 [2] = target: T2, hCB-2; test: hCB2-Sf9 antagonist mode SPA GTP-γ-35S binding assay; format: biochemical; conditions: human CB-2 Sf9 membranes, antagonist mode vs methanandamide; read-out: hCB-2 SPA GTPγS Sf9 Membrane Antagonist Kb
Procedure: as §3
hCB1-Sf9 and hCB2-Sf9 antagonist Assays:
hCB1-5f9 and hCB2-5f9 membranes (Perkin Elmer, Boston, Mass.) are prepared essentially as above with 1 μM (final conc.) GDP for hCB1-5f9 and 0.05 μM (final conc.) GDP for hCB2-5f9. The assay is run essentially as described for the CHO membranes above. Diluted membranes are pre-incubated with test compound for 15 min., which is followed by addition of GTP-γ-^35S and a further 35 min. incubation. Nonidet P40 and anti-Gi-antibody are added sequentially with a 15 min. incubation after each addition. The SPA beads are then added, the plates are sealed and vortexed, and then incubated at room temperature for 1 hr.
Data are analyzed as follows: Background is subtracted from all wells. Percent agonist efficacy is determine by normalizing agonist/inverse agonist dose response data to the response obtained for a full agonist (methanandamide). Percent antagonist inhibition is calculated by first normalizing the data to the signal generated by a saturating concentration of the full agonist (methanandamide). Then the data are analyzed using a 4-parameter logistic reduced fit (Activity Base™ and XLFit3™ from IDBS, Emeryville, Calif.). Kb values are determined using a modification of the Cheng-Prusoff relationship: Kb=IC50/(1+[agonist]/EC50), where “IC50” is determined from a four parameter fit of displacement curves, “[agonist]” is the agonist challenge concentration (nM), and “EC50” is determined from a four parameter fit of a full agonist concentration response curve (Cheng and Prusoff 1973). Mean Kb values are calculated as a mean of at least three independent determinations±standard error of the mean (SEM). […]

hCB-1 [3] = target: T4, hCB-1 (Homo sapiens, UniProt P21554); test: hCB1-CHO antagonist mode SPA GTP-γ-35S binding assay; format: biochemical; conditions: human CB-1 CHO membranes, antagonist mode vs methanandamide; read-out: hCB-1 SPA GTPγS CHO Membrane Antagonist Kb
T4 construct: purchased Applied Cell Sciences, Rockville, Md; host or cells: CHO cells (membranes)
Procedure: as §3
hCB1-CHO and rCB1-CHO Antagonist Assays:
hCB1-CHO or rCB1-CHO membranes (Applied Cell Sciences, Rockville, Md.) and GDP (1 μM final) are added to ice cold assay buffer and homogenized. Diluted compounds, GTP-γ-^35S (500 nM final conc.) and membranes are added to wells of an assay plate and incubated for 30 min. at room temperature. Next, a mixture containing Nonidet P40 detergent (0.2% final conc.), rabbit polyclonal IgG Gαi-3 antibody (provided by Covance, Princeton, N.J.), and 1.25 mg anti-rabbit antibody scintillation proximity assay beads (GE Healthcare, Piscataway, N.J.) is added. The plates are sealed, vortexed, and incubated for an additional 2 hr. Plates are then centrifuged at 700×g for 10 min. and the radioactivity counted.
Data are analyzed as follows: Background is subtracted from all wells. […] Percent antagonist inhibition is calculated by first normalizing the data to the signal generated by a saturating concentration of the full agonist (methanandamide). Then the data are analyzed using a 4-parameter logistic reduced fit (Activity Base™ and XLFit3™ from IDBS, Emeryville, Calif.). Kb values are determined using a modification of the Cheng-Prusoff relationship: Kb=IC50/(1+[agonist]/EC50), where “IC50” is determined from a four parameter fit of displacement curves, “[agonist]” is the agonist challenge concentration (nM), and “EC50” is determined from a four parameter fit of a full agonist concentration response curve (Cheng and Prusoff 1973). Mean Kb values are calculated as a mean of at least three independent determinations±standard error of the mean (SEM). […]

hCB-1 [4] = target: T4, hCB-1; test: hCB1-CHO agonist mode SPA GTP-γ-35S binding assay; format: biochemical
Procedure: as §3
hCB1-CHO membrane, GDP (1 μM final conc.), and saponin (10 ng/mL final conc., Sigma, St Louis, Mo.) are combined and prepared on ice as for the antagonist assays, above. Diluted test compounds, GTP-γ-^35S (500 nM final conc.) and membranes are combined in the assay plate and incubated for 30 min. Then 1 mg/well Wheatgerm Agglutinin SPA beads (GE Healthcare, Piscataway, N.J.) are added, plates are sealed and vortexed and incubate for 1 hr. before spinning and counting in the same fashion as for the antagonist assays, above.
as §4

CYP3A = test: Human CYP fingerprinting, ketoconazole inhibitor; format: in vitro ADME; conditions: 4 μM, human liver microsomes, 30 min, ketoconazole 10 μM
Procedure: as §1, §2

T4 sequence (P21554 whole entry): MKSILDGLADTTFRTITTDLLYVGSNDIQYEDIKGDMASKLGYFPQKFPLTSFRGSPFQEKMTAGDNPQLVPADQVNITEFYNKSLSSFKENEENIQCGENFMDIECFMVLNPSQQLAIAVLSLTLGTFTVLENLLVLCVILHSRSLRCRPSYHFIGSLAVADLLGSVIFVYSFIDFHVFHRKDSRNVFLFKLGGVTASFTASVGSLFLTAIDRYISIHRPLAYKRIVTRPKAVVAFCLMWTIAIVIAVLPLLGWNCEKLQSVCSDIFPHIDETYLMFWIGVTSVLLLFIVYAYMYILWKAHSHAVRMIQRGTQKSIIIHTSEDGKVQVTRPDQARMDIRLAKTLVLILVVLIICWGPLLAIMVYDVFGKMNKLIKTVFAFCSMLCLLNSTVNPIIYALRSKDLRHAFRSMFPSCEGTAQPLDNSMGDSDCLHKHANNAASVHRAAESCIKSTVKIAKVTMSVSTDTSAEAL
T1 sequence (P10635 whole entry): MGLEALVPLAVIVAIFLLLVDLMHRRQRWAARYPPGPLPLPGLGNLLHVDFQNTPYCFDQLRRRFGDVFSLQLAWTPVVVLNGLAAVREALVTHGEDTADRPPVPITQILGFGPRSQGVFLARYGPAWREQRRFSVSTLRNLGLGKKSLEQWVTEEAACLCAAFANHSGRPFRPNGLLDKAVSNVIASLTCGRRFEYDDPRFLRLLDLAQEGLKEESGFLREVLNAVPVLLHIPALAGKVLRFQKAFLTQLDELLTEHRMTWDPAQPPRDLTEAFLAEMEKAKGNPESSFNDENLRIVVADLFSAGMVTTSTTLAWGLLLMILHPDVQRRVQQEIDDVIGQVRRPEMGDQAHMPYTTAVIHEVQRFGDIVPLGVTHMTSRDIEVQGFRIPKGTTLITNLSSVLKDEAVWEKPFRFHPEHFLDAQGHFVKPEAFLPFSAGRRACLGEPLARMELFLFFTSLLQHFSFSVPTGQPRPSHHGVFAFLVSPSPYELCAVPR
T2 sequence (P34972 whole entry): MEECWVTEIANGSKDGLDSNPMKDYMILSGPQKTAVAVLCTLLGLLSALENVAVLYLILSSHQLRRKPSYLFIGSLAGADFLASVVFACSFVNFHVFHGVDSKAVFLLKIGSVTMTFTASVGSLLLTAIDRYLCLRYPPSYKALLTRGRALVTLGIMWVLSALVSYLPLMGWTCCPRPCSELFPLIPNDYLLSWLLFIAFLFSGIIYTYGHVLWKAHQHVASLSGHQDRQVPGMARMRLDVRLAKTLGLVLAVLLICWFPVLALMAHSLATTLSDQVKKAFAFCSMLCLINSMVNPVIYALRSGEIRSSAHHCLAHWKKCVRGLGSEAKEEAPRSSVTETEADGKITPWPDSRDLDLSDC
T3 sequence (P11712 whole entry): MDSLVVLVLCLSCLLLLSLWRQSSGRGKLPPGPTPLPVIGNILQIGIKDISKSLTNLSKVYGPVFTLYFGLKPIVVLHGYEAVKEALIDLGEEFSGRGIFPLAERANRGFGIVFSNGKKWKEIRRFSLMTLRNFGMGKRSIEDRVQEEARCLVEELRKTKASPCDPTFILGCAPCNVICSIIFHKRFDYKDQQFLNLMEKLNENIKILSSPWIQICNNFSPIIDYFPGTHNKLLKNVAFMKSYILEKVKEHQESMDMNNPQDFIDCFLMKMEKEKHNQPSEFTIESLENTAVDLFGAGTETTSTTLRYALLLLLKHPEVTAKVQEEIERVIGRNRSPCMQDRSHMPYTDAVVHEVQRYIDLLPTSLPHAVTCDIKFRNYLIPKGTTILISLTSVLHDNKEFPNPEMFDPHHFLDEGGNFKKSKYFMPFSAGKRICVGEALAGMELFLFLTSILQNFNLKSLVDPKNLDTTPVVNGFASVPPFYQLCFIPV

Structure (SMILES)	Risk of Drug Drug Interaction (DDI) CYP2D6 (CYP2D6)	EC50 (hCB-2 [1]) [nM]	Risk of Drug Drug Interaction (DDI) CYP2C9 (CYP2C9)	Kb (hCB-2 [2]) [nM]	Kb (hCB-1 [3]) [nM]	EC50 (hCB-1 [4]; human CB-1 CHO membranes, agonist mode (inverse agonism), read-out: hCB-1 SPA GTPγS CHO Membrane Agonist Relative EC50 inverse) [nM]	hCB-1 SPA GTPγS CHO Membrane Agonist % Relative Efficacy (hCB-1 [4]; normalized to full agonist methanandamide, below zero = inverse agonist) [%]	Risk of Drug Drug Interaction (DDI) CYP3A (CYP3A)
CC(C)(N[C@@H]1C[C@H](c2cccc(OC(F)(F)F)c2)N(c2ccc(C(F)(F)F)cc2)C1=O)c1ccnc(C2CC2)n1 [Example 2, (3R,5R)-3-[1-(2-Cyclopropyl-pyrimidin-4-yl)-1-methyl-ethylamino]-5-(3-trifluoromethoxy-phenyl)-1-(4-trifluoromethyl-phenyl)-pyrrolidin-2-one]	low (a reduction in metabolite peak area of less than 30% (relative to the uninhibited control incubation) receives a designation of low risk of Drug Drug Interaction (DDI))	> 10800	low (a reduction in metabolite peak area of less than 30% (relative to the uninhibited control incubation) receives a designation of low risk of Drug Drug Interaction (DDI))	> 10800	0.644	2.39	−108	low (a reduction in metabolite peak area of less than 30% (relative to the uninhibited control incubation) receives a designation of low risk of Drug Drug Interaction (DDI))
CC(C)(N[C@@H]1C[C@H](c2cccc(OC(F)(F)F)c2)N(c2ccc(C(F)(F)F)cc2)C1=O)c1ccnc(C(F)(F)F)n1 [Example 6, (3R,5R)-3-[1-Methyl-1-(2-trifluoromethyl-pyrimidin-4-yl)-ethylamino]-5-(3-trifluoromethoxy-phenyl)-1-(4-trifluoromethyl-phenyl)-pyrrolidin-2-one adipate]	low (a reduction in metabolite peak area of less than 30% (relative to the uninhibited control incubation) receives a designation of low risk of Drug Drug Interaction (DDI))	–	–	–	–	–	–	low (a reduction in metabolite peak area of less than 30% (relative to the uninhibited control incubation) receives a designation of low risk of Drug Drug Interaction (DDI))
